≈ marks a conversion by molar mass, not a printed value. Where a SMILES comes first, the peptide text is derived from it. [ ]: non-standard residue; d: D form. The star is where a group is joined. Phe(4-tBu) = CC(C)(C)c1ccc(C[C@H](N)C(=O)O)cc1; tBuAla = CC(C)(C)C[C@H](N)C(=O)O; Tle = CC(C)(C)[C@H](N)C(=O)O; OBn = c1ccc(CO*)cc1
How the values were obtained:
[1] = tested on: Escherichia coli ATCC 25922; conditions: ATCC 25922
[2] = tested on: Staphylococcus aureus ATCC 25923; conditions: ATCC 25923
MRSA ATCC 33591 [3] = conditions: ATCC 33591
MRSE ATCC 27626 [4] = conditions: ATCC 27626
[5] = tested on: Escherichia coli ATCC 25922; conditions: ATCC 25922; remark: listed apart in the source
[6] = tested on: Staphylococcus aureus ATCC 25923; conditions: ATCC 25923; remark: listed apart in the source
MRSA ATCC 33591 [7] = tested on: MRSA ATCC 33591
MRSE ATCC 27626 [8] = tested on: MRSE ATCC 27626

| MIC E. coli [1] | MIC S. aureus [2] | MIC MRSA (MRSA ATCC 33591 [3]) | MIC MRSE (MRSE ATCC 27626 [4]) | MIC P. aerug. (P. aeruginosa) [µg/mL] | Structure (SMILES) | MBC E. coli [5] | MBC S. aureus [6] | MBC MRSA (MRSA ATCC 33591 [7]) | MBC MRSE (MRSE ATCC 27626 [8]) |
| --- | --- | --- | --- | --- | --- | --- | --- | --- | --- |
|  |  | 37.5 µg/mL (≈ 83.2 µM) | 50.0 µg/mL (≈ 111 µM) | >300.0 | N=C(N)NCCC[C@H](NC(=O)[C@@H](N)Cc1c[nH]c2ccccc12)C(=O)OCc1ccccc1 [WR-OBzl] (H-Trp-Arg-OBn; N-terminus assumed) |  |  |  |  |
| 200.0 µg/mL (≈ 428 µM) | 25.0 µg/mL (≈ 53.5 µM) | 12.5 to 25 µg/mL | 5.0 µg/mL (≈ 10.7 µM) | 100.0 (≈ 214 µM) | CC(C)(C)c1ccc(C[C@H](N)C(=O)N[C@@H](CCCNC(=N)N)C(=O)OCc2ccccc2)cc1 [tBuFR-OBzl] (H-[Phe(4-tBu)]-Arg-OBn; N-terminus assumed) |  |  |  |  |
| >300.0 µg/mL | >300.0 µg/mL | 100.0 µg/mL (≈ 255 µM) | 100.0 µg/mL (≈ 255 µM) | >300.0 | COC(=O)[C@H](CCCNC(=N)N)NC(=O)[C@@H](N)Cc1ccc(C(C)(C)C)cc1 [tBuFR-OMe] (H-[Phe(4-tBu)]-Arg-OMe; N-terminus assumed) |  |  |  |  |
| >300.0 µg/mL | >300.0 µg/mL | 100.0 µg/mL (≈ 265 µM) | 150.0 µg/mL (≈ 397 µM) | >300.0 | CC(C)(C)[C@H](N)C(=O)N[C@@H](CCCNC(=N)N)C(=O)OCc1ccccc1 [tBuGR-OBzl] (H-[Tle]-Arg-OBn; N-terminus assumed) |  |  |  |  |
| 75 µg/mL (≈ 118 µM) | 20 (20) μg/ml | 20 (20) μg/ml | 10 (10) μg/ml |  | N=C(N)NCCC[C@H](NC(=O)[C@H](N)Cc1c[nH]c2ccccc12)C(=O)N[C@@H](Cc1c[nH]c2ccccc12)C(=O)OCc1ccccc1 [wRW OBz] (H-[dW]-Arg-Trp-OBn) | 100 µg/mL (≈ 157 µM) | 20 (20) μg/ml | 20 (20) μg/ml | 10 (10) μg/ml |
| 75 µg/mL (≈ 118 µM) | 5 (5) μg/ml | 5 µg/mL (≈ 7.85 µM) | 5 (5) μg/ml |  | N=C(N)NCCC[C@@H](NC(=O)[C@H](N)Cc1c[nH]c2ccccc12)C(=O)N[C@H](Cc1c[nH]c2ccccc12)C(=O)OCc1ccccc1 [wrw OBz] (H-[dW]-[dR]-[dW]-OBn) | 200 µg/mL (≈ 314 µM) | 5 (5) μg/ml | 10 µg/mL (≈ 15.7 µM) | 5 (5) μg/ml |

The next lines start with the molecule.

| Structure (SMILES) | MIC E. coli [1] | MIC S. aureus [2] | MIC MRSA (MRSA ATCC 33591 [3]) | MIC MRSE (MRSE ATCC 27626 [4]) | MIC P. aerug. (P. aeruginosa) [µg/mL] | MBC E. coli [5] | MBC S. aureus [6] | MBC MRSA (MRSA ATCC 33591 [7]) | MBC MRSE (MRSE ATCC 27626 [8]) |
| --- | --- | --- | --- | --- | --- | --- | --- | --- | --- |
| N=C(N)NCCC[C@H](N)C(=O)N[C@@H](Cc1c[nH]c2ccccc12)C(=O)N[C@H](CCCNC(=N)N)C(=O)N[C@H](Cc1c[nH]c2ccccc12)C(=O)OCc1ccccc1 [RWrw-OBzl, H-L-Arg-L-Trp-D-Arg-D-Trp-OBzl] (H-RW[dR][dW]-OBn) | 75 µg/mL (≈ 94.6 µM) | 5 (5) μg/ml | 2.5 to 5 µg/mL | 2.5 (2.5) μg/ml |  | 75 to 100 µg/mL | 5 (5) μg/ml | 5 µg/mL (≈ 6.31 µM) | 2.5 (2.5) μg/ml |
| COC(=O)[C@H](CCCNC(=N)N)NC(=O)[C@@H](N)Cc1c[nH]c2ccccc12 [WR-OMe, H-L-Trp-L-Arg-OMe] (H-Trp-Arg-OMe) |  |  |  |  |  | >200 (>200) μg/ml | >200 (>200) μg/ml | >200 (>200) μg/ml | >200 (>200) μg/ml |
| N=C(N)NCCC[C@H](NC(=O)[C@@H](N)Cc1c[nH]c2ccccc12)C(=O)N[C@@H](Cc1c[nH]c2ccccc12)C(=O)OCc1ccccc1 [WRW OBz] (H-Trp-Arg-Trp-OBn) | 75 µg/mL (≈ 118 µM) | 5 (5) μg/ml | 5 µg/mL (≈ 7.85 µM) | 5 (5) μg/ml |  | 200 µg/mL (≈ 314 µM) | 5 (5) μg/ml | 10 µg/mL (≈ 15.7 µM) | 5 (5) μg/ml |
| COC(=O)[C@H](CCCNC(=N)N)NC(=O)[C@H](Cc1c[nH]c2ccccc12)NC(=O)[C@@H](N)Cc1c[nH]c2ccccc12 [WWR-OMe, H-L-Trp-L-Trp-L-Arg-OMe] (H-Trp-Trp-Arg-OMe) |  |  |  |  |  | >200 (>200) μg/ml | >200 (>200) μg/ml | >200 (>200) μg/ml | >200 (>200) μg/ml |
| N=C(N)NCCC[C@@H](N)C(=O)N[C@H](Cc1c[nH]c2ccccc12)C(=O)OCc1ccccc1 [rw OBz] (H-[dR]-[dW]-OBn) | >200 (>200) μg/ml | 50 µg/mL (≈ 111 µM) | 50 µg/mL (≈ 111 µM) | 20 µg/mL (≈ 44.4 µM) |  | >200 (>200) μg/ml | 75 µg/mL (≈ 166 µM) | 75 µg/mL (≈ 166 µM) | 25 µg/mL (≈ 55.5 µM) |
| CC(C)(C)C[C@H](N)C(=O)N[C@@H](CCCNC(=N)N)C(=O)OCc1ccccc1 [tBuAR-OBzl] (H-[tBuAla]-Arg-OBn; N-terminus assumed) | >300.0 µg/mL | 300.0 µg/mL (≈ 766 µM) | 150 to 200 µg/mL | 100.0 µg/mL (≈ 255 µM) | >300.0 |  |  |  |  |

From patent US9115169B2, “Method of treating tumors” (Lytix Biopharma AS, priority 2000, dated 2015)
